{"source": "patent US20050187388A1", "about": "“Method for the preparation of aryl ethers” (priority 2004, published 2005)", "origin": "cited, not measured here", "key": {"[1]": {"test_system": "8-OH-DPAT hypothermia", "conditions": "in vivo"}, "[2]": {"target": "serotonin reuptake (Homo sapiens, UniProt P31645)", "sequence (P31645 whole entry)": "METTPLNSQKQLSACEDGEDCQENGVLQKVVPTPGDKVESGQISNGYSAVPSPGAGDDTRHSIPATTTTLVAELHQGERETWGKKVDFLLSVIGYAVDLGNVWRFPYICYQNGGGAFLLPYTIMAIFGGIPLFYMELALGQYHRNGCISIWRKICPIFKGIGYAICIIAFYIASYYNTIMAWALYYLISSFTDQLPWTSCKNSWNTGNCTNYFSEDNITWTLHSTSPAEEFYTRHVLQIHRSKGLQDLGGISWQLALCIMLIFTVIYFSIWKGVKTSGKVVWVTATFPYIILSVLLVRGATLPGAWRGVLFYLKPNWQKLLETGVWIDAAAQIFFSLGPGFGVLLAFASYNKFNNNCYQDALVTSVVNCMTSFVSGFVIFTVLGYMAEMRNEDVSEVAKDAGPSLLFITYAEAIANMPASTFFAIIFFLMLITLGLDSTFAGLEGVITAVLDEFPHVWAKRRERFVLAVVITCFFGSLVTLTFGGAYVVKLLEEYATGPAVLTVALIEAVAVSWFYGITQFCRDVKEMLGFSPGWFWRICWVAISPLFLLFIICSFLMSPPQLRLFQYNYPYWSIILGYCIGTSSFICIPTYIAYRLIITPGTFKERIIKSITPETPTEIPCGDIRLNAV"}, "[3]": {"target": "dopamine reuptake (Homo sapiens, UniProt Q01959)", "sequence (Q01959 whole entry)": "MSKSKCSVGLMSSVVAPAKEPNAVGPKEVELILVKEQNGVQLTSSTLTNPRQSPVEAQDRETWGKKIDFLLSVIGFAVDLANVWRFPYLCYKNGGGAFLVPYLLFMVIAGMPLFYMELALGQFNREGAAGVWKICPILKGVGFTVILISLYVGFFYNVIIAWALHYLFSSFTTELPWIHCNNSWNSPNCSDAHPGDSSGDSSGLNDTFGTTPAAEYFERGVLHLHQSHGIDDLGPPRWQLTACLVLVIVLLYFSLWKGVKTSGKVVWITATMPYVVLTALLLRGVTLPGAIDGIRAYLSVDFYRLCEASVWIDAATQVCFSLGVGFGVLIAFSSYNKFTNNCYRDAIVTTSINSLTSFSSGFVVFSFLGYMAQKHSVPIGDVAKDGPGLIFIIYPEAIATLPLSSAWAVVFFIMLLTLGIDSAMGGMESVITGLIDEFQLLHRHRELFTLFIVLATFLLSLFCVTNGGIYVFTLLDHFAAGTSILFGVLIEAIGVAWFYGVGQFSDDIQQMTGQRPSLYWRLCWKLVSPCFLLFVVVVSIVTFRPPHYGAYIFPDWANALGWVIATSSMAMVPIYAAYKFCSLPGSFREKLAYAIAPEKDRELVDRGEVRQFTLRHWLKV"}}, "data": [{"smiles": "CCOc1ccccc1O[C@@H](c1ccccc1)[C@@H]1CNCCO1", "note": "(racemic) [Reboxetine, 2-[α-(2-ethoxyphenoxy)benzyl]morpholine]", "values": [{"measurement": "effect in the 8-OH-DPAT hypothermia test", "setting": "[1]", "value": "ineffective"}, {"measurement": "serotonin reuptake inhibitory activity", "setting": "[2]", "value": "only marginal"}, {"measurement": "dopamine reuptake inhibitory activity", "setting": "[3]", "value": "no dopamine reuptake inhibitory activity"}]}]}
